Experimental data from patent US20250241926A1, “HETEROCYCLIC COMPOUNDS FOR USE IN THE TREATMENT OF CANCER” (ARTIOS PHARMA LIMITED, priority 2021, published 2025).
Like-named read-outs stand apart in the source and are kept apart here.

Biological target: T1, Human Polθ polymerase domain (aa1820-2590) (Homo sapiens, UniProt O75417)
T1 construct: Human Polθ polymerase domain (aa1820-2590) was expressed in E. Coli; made in house; host or cells: E. coli
T1 sequence (O75417 1820-2590): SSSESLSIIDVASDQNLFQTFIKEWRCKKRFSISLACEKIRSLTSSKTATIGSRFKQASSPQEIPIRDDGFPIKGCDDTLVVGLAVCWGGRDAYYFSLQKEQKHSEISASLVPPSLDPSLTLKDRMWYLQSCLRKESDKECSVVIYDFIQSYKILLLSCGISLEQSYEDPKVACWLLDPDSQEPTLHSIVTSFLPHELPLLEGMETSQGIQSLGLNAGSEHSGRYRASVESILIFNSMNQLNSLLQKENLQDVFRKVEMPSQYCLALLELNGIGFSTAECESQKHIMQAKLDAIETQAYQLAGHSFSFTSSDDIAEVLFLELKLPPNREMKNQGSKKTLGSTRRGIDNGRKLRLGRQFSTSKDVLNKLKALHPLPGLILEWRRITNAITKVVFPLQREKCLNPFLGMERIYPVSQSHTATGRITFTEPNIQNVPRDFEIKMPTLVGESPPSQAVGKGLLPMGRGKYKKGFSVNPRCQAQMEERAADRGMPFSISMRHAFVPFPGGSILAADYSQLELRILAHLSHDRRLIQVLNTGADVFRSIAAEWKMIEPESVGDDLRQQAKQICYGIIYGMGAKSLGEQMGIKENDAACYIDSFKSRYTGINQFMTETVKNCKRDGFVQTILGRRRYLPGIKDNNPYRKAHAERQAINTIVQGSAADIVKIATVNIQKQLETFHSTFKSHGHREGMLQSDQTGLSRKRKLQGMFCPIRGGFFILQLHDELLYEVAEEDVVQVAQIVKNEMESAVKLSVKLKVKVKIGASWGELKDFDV
Test: Polθ Polymerase Domain Kinact/Kl Assay (PicoGreen)
Type: biochemical
Details: covalent inhibitors, kobs vs [I] fit, 0.8 nM Polθ, 100 nM DNA substrate
Method in brief: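 E. coli-expressed enzyme (0.8 nM final) was run with 100 nM annealed DNA substrate and dNTPs in Tris pH 7.5 buffer (1% DMSO), with EDTA stops across a time course up to 60 min. Synthesised DNA was read by PicoGreen fluorescence. kobs per inhibitor concentration was fitted from the time courses, and Kinact and KI came from the kobs-vs-[I] plot.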

Compound	kinact/KI (read-out: Kinact/KI) [M⁻¹ s⁻¹]	kinact/KI [M⁻¹ s⁻¹]
Cc1cc(C(F)(F)F)c(C#N)c(N[C@H]2CCN(CCN3CCOC4(CCN(C(=O)/C=C/CN(C)C)C4)C3)c3c(F)cccc3N(C)C2=O)n1 (stereo partly drawn) [Example 2, 2-(((S)-6-(2-(2-((E)-4-(Dimethylamino)but-2-enoyl)-6-oxa-2,9-diazaspiro[4.5]decan-9-yl)ethyl)-7-fluoro-1-methyl-2-oxo-1,2,3,4,5,6-hexahydrobenzo[b][1,4]diazocin-3-yl)amino)-6-methyl-4-(trifluoromethyl)nicotinonitrile]	510000	–
C#CCN1CCN(CCN2CC[C@H](Nc3nc(C)cc(C(F)(F)F)c3C#N)C(=O)N(C)c3cccc(F)c32)CC12CN(C(=O)C=C)C2 [Example 25, (S)-2-((6-(2-(2-Acryloyl-5-(prop-2-yn-1-yl)-2,5,8-triazaspiro[3.5]nonan-8-yl)ethyl)-7-fluoro-1-methyl-2-oxo-1,2,3,4,5,6-hexahydrobenzo[b][1,4]diazocin-3-yl)amino)-6-methyl-4-(trifluoromethyl)nicotinonitrile]	1.6e+06	–
C=CC(=O)N1CCN(CCCN2CC[C@H](Nc3nc(C)cc(C(F)(F)F)c3C#N)C(=O)N(C)c3cccc(F)c32)CC1 [Example 37, (S)-2-((6-(3-(4-Acryloylpiperazin-1-yl)propyl)-7-fluoro-1-methyl-2-oxo-1,2,3,4,5,6-hexahydrobenzo[b][1,4]diazocin-3-yl)amino)-6-methyl-4-(trifluoromethyl)nicotinonitrile]	340000	–
Cc1cc(C(F)(F)F)c(C#N)c(N[C@H]2CCN(CCCN3CCN(C(=O)/C=C/CN(C)C)CC3)c3cc(F)ccc3N(C)C2=O)n1 [Example 39, (S,E)-2-((6-(3-(4-(4-(Dimethylamino)but-2-enoyl)piperazin-1-yl)propyl)-8-fluoro-1-methyl-2-oxo-1,2,3,4,5,6-hexahydrobenzo[b][1,4]diazocin-3-yl)amino)-6-methyl-4-(trifluoromethyl)nicotinonitrile]	1e+06	–
C=CC(=O)N1CC(OCCCN2CC[C@H](Nc3nc(C)cc(C(F)(F)F)c3C#N)C(=O)N(C)c3ccccc32)C1 [Example 53, (S)-2-((6-(3-((1-Acryloylazetidin-3-yl)oxy)propyl)-1-methyl-2-oxo-1,2,3,4,5,6-hexahydrobenzo[b][1,4]diazocin-3-yl)amino)-6-methyl-4-(trifluoromethyl)nicotinonitrile]	500000	–
(S)-2-((6-(2-(4-(1-Acrylo- yl-3-hydroxyazetidin-3- yl)piperidin-1-yl)ethyl)-7- fluoro-1-methyl-2-oxo- 1,2,3,4,5,6-hexahydro- benzo[b][1,4]diazocin-3- yl)amino)-6-methyl-4- (trifluoromethyl)nicotino- nitrile [Example 12]	–	440000
C=CC(=O)N1CC(O[C@@H]2CN(CCN3CC[C@H](Nc4nc(C)cc(C(F)(F)F)c4C#N)C(=O)N(C)c4cccc(F)c43)C[C@H]2O)C1 [Example 65A, 2-(((S)-6-(2-((3S/R,4S/R)-3-((1-Acryloylazetidin-3-yl)oxy)-4-hydroxypyrrolidin-1-yl)ethyl)-7-fluoro-1-methyl-2-oxo-1,2,3,4,5,6-hexahydrobenzo[b][1,4]diazocin-3-yl)amino)-6-methyl-4-(trifluoromethyl)nicotinonitrile]	–	460000
